Where “and” joins values, the source holds several entries; their conditions need not be identical. Equal values may be shown once. Records with an inconclusive call do not appear.
Tested on: BDF1 mice, s.c. Lewis lung carcinoma, T/C %
Assay: NCI In Vivo Anticancer Drug Screen. Data for tumor model Lewis Lung Carcinoma (subcutaneous) in B6D2F1 (BDF1) mice
Outline: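 Readout: survival or tumor size, expressed as treated (T) over vehicle control (C). Transplantable tumor implanted in mice; compound given to the treated group.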

[1] = endpoint: mean tumor weight, dose: 100.0 mg/kg/injection, schedule: Q01DX011 (ip), vehicle: saline, higher = larger tumour

In the case of CCOc1ccccc1C1N(Cc2ccc(OC)cc2)CCCN1Cc1ccc(OC)cc1, the T/C (endpoint: mean tumor weight, dose: 74.0 mg/kg/injection, schedule: Q01DX011 (ip), vehicle: other, higher = larger tumour) is reported as 103 % of control, the T/C (endpoint: mean tumor weight, dose: 111.0 mg/kg/injection, schedule: Q01DX011 (ip), vehicle: other, higher = larger tumour) is reported as 93 % of control and the T/C (endpoint: mean tumor weight, dose: 166.0 mg/kg/injection, schedule: Q01DX011 (ip), vehicle: other, higher = larger tumour) is reported as 93 % of control.

COC1C(OC(=O)/C=C/C=C/C=C/C=C/C(=O)O)CCC2(CO2)C1C1(C)OC1CC=C(C)C (configuration not stated) was tested, and the T/C (endpoint: mean tumor weight, dose: 25.0 mg/kg/injection, schedule: Q01DX011 (ip), vehicle: saline, higher = larger tumour) was 82 % of control, the T/C (endpoint: mean tumor weight, dose: 50.0 mg/kg/injection, schedule: Q01DX011 (ip), vehicle: saline, higher = larger tumour) was 38 % of control and 49 % of control and the T/C [1] was 54 % of control. The T/C (endpoint: mean tumor weight, dose: 200.0 mg/kg/injection, schedule: Q01DX011 (ip), vehicle: saline, higher = larger tumour) was 23 % of control.

CC(C)CCSc1nc(N)nc2nc[nH]c12 was tested, and the T/C (endpoint: mean tumor weight, dose: 300.0 mg/kg/injection, schedule: Q01DX011 (ip), vehicle: other, higher = larger tumour) was 59 % of control.

With Nc1ncnc2c1ccn2C1OC(CO)C(O)C1O (configuration not stated) the T/C (endpoint: mean tumor weight, dose: 0.32 mg/kg/injection, schedule: Q01DX011 (ip), vehicle: saline, higher = larger tumour) was 77 % of control, the T/C (endpoint: mean tumor weight, dose: 0.63 mg/kg/injection, schedule: Q01DX011 (ip), vehicle: saline, higher = larger tumour) was 60 % of control and the T/C (endpoint: mean tumor weight, dose: 1.25 mg/kg/injection, schedule: Q01DX011 (ip), vehicle: saline, higher = larger tumour) was 84 % of control. For the same compound, the T/C (endpoint: median survival time, dose: 0.25 mg/kg/injection, schedule: Q01DX011 (ip), vehicle: other, higher = longer survival) was 98 % of control, the T/C (endpoint: median survival time, dose: 0.5 mg/kg/injection, schedule: Q01DX011 (ip), vehicle: other, higher = longer survival) was 89 % of control and the T/C (endpoint: median survival time, dose: 1.0 mg/kg/injection, schedule: Q01DX011 (ip), vehicle: other, higher = longer survival) was 110 % of control. The T/C (endpoint: median survival time, dose: 2.0 mg/kg/injection, schedule: Q01DX011 (ip), vehicle: other, higher = longer survival) was 101 % of control.

For CNC(=O)Nc1ccccc1C(=O)NN, the T/C (endpoint: median survival time, dose: 25.0 mg/kg/injection, schedule: Q01DX009 (ip), vehicle: Klucel (hydroxypropylcellulose) (HPC), higher = longer survival) was 113 % of control, the T/C (endpoint: median survival time, dose: 50.0 mg/kg/injection, schedule: Q01DX009 (ip), vehicle: Klucel (hydroxypropylcellulose) (HPC), higher = longer survival) was 96 % of control and the T/C (endpoint: median survival time, dose: 100.0 mg/kg/injection, schedule: Q01DX009 (ip), vehicle: Klucel (hydroxypropylcellulose) (HPC), higher = longer survival) was 102 % of control. For the same compound, the T/C (endpoint: median survival time, dose: 200.0 mg/kg/injection, schedule: Q01DX009 (ip), vehicle: Klucel (hydroxypropylcellulose) (HPC), higher = longer survival) was 93 % of control.

CN(CCCOS(C)(=O)=O)CCCOS(C)(=O)=O was tested, and the T/C (endpoint: mean tumor weight, dose: 5.0 mg/kg/injection, schedule: Q01DX011 (ip), vehicle: saline, higher = larger tumour) was 85 % of control, the T/C (endpoint: mean tumor weight, dose: 10.0 mg/kg/injection, schedule: Q01DX011 (ip), vehicle: saline, higher = larger tumour) was 78 % of control and the T/C (endpoint: mean tumor weight, dose: 20.0 mg/kg/injection, schedule: Q01DX011 (ip), vehicle: saline, higher = larger tumour) was 49 % of control. The T/C (endpoint: mean tumor weight, dose: 40.0 mg/kg/injection, schedule: Q01DX011 (ip), vehicle: saline, higher = larger tumour) was 59 % of control.

Cc1ccc(N2CCN(CCCN3CCN(c4ccccc4Cl)CC3)CC2)cc1 was tested, and the T/C (endpoint: mean tumor weight, dose: 22.5 mg/kg/injection, schedule: Q01DX011 (ip), vehicle: carboxymethylcellulose (CMC), higher = larger tumour) was 108 % of control, the T/C (endpoint: mean tumor weight, dose: 45.0 mg/kg/injection, schedule: Q01DX011 (ip), vehicle: carboxymethylcellulose (CMC), higher = larger tumour) was 45 % of control and the T/C (endpoint: mean tumor weight, dose: 90.0 mg/kg/injection, schedule: Q01DX011 (ip), vehicle: carboxymethylcellulose (CMC), higher = larger tumour) was 38 % of control.

For COc1cc(NS(C)(=O)=O)ccc1Nc1c2cccc(C)c2nc2c(C)cccc12, the T/C (endpoint: median survival time, dose: 6.25 mg/kg/injection, schedule: Q01DX011 (ip), vehicle: saline, higher = longer survival) was 88 % of control, the T/C (endpoint: median survival time, dose: 12.5 mg/kg/injection, schedule: Q01DX011 (ip), vehicle: saline, higher = longer survival) was 113 % of control and the T/C (endpoint: median tumor weight (est.), dose: 25.0 mg/kg/injection, schedule: Q01DX011 (ip), vehicle: saline, higher = larger tumour) was 579 % of control.

In the case of CCCCCCCCCCCCCS, the T/C (endpoint: mean tumor weight, dose: 66.0 mg/kg/injection, schedule: Q01DX011 (ip), vehicle: saline, higher = larger tumour) is reported as 106 % of control, the T/C [1] is reported as 77 % of control and the T/C (endpoint: mean tumor weight, dose: 150.0 mg/kg/injection, schedule: Q01DX011 (ip), vehicle: saline, higher = larger tumour) is reported as 91 % of control.

Source: PubChem BioAssay AID270 (DTP/NCI, 2004)
